Results: US11583495B2, “Nasal composition comprising a mucoadhesive polymer” (Northriver Pharm, LLC, priority 2017, dated 2023)

Experiment: Drug release through lamb buccal mucosa, flow-through Franz diffusion cell
Conditions: from CARBOPOL ETD 2020 NF (1%) solution containing triamcinolone and phenol
Method: Drug release through lamb buccal mucosa was evaluated via a flow-through Franz diffusion cell. Lamb buccal mucosa was clamped into the cell and the receptor chamber was filled with 5 mL of phosphate buffered solution (PBS). CARBOPOL® ETD 2020 NF (1%) solution containing triamcinolone and phenol was applied to the donor chamber. 0.5 mL of PBS was withdrawn from the receptor chamber every 30 minutes and replaced with fresh PBS over the course of 7 hours. Each sample was placed in a cuvette for testing via UV-Vis spectrophotometry. The sample was compared to a set of calibration standards of known concentrations for triamcinolone and phenol, independently. […] The peaks at 225 nm and 270 nm correspond to phenol, and the peak at 240 corresponds with triamcinolone.

Oc1ccccc1 [Phenol, phenol]
Phenol diffusion through the mucosa (UV-Vis, based on calibration curve, over 7 hours): less than 0.025%
amounts released over time and diffused through the lamb buccal mucosa (sampled every 30 minutes over 7 hours): Increasing amounts
